Test results as given in the supplement of paper PMC10307832.

Experiments:
Test in all cases: relative viability (nuclei count vs DMSO), 5 days (fraction); higher = more cells survive
[1] = test system: EKVX
Method in brief: (§1)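 Nuclei were stained with Hoechst during a one-step fixation (final 0.05% Triton X-100, 1% formaldehyde, 1 ug/ml Hoechst) carried out 5 days after dosing, then counted on 4× images. The cells, lung cancer lines in 1536-well plates, had been dosed by pin tool the day after seeding with one drug alone or a fixed anchor-drug dose plus five library-drug doses (not always all listed) in √10 steps. Relative viability is the nuclei count in treated wells divided by that in vehicle wells, and each value is the median of duplicate plates.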

[2] = test system: HCC-44
Method in brief: as §1

[3] = test system: NCI-H1648
Method in brief: as §1

[4] = test system: NCI-H2085
Method in brief: as §1

[5] = test system: NCI-H1993
Method in brief: as §1

[6] = test system: RERF-LC-KJ
Method in brief: as §1

[7] = test system: NCI-H2126
Method in brief: as §1

Question: With `O=c1cc(N2CCOCC2)oc2c(-c3cccc4c3sc3ccccc34)cccc12` + Nc1nc2[nH]cc(CCc3ccc(C(=O)N[C@@H](CCC(=O)O)C(=O)O)cc3)c2c(=O)[nH]1 [Pemetrexed] (partner 0.2 µM) as the compound, how does the relative viability ([1]; first compound 0.01 µM) read?
Answer: Its relative viability is 0.41.

Question: And the relative viability ([1]; first compound 0.03162 µM)?
Answer: The relative viability was 0.384.

Question: And the relative viability ([1]; first compound 0.1 µM)?
Answer: The relative viability was 0.419.

Question: And the relative viability ([1]; first compound 0.3162 µM)?
Answer: The relative viability was 0.365.

Question: And the relative viability ([1]; first compound 1 µM)?
Answer: The relative viability was 0.362.

Question: What about the relative viability ([2]; first compound 0.01 µM) of the same compound?
Answer: The relative viability was 0.667.

Question: And the relative viability ([2]; first compound 0.03162 µM)?
Answer: Its relative viability is 0.643.

Question: And the relative viability ([2]; first compound 0.1 µM)?
Answer: Its relative viability is 0.587.

Question: And the relative viability ([2]; first compound 0.3162 µM)?
Answer: The relative viability was 0.591.

Question: What about the relative viability ([2]; first compound 1 µM) of the same compound?
Answer: The relative viability was 0.664.

Question: What about the relative viability ([3]; first compound 0.03162 µM) of the same compound?
Answer: Its relative viability is 0.681.

Question: And the relative viability ([3]; first compound 0.1 µM)?
Answer: The relative viability was 0.894.

Question: And the relative viability ([3]; first compound 0.3162 µM)?
Answer: The relative viability was 0.667.

Question: And the relative viability ([3]; first compound 1 µM)?
Answer: The relative viability was 0.583.

Question: What about the relative viability ([4]; first compound 0.01 µM) of the same compound?
Answer: Its relative viability is 0.905.

Question: And the relative viability ([4]; first compound 0.03162 µM)?
Answer: Its relative viability is 0.851.

Question: What about the relative viability ([4]; first compound 0.1 µM) of the same compound?
Answer: Its relative viability is 0.849.

Question: And the relative viability ([4]; first compound 0.3162 µM)?
Answer: Its relative viability is 0.865.

Question: What about the relative viability ([4]; first compound 1 µM) of the same compound?
Answer: The relative viability was 0.867.

Question: And the relative viability ([5]; first compound 0.01 µM)?
Answer: Its relative viability is 0.624.

Question: And the relative viability ([5]; first compound 0.03162 µM)?
Answer: The relative viability was 0.524.

Question: What about the relative viability ([5]; first compound 0.1 µM) of the same compound?
Answer: The relative viability was 0.621.

Question: And the relative viability ([5]; first compound 0.3162 µM)?
Answer: The relative viability was 0.54.

Question: And the relative viability ([5]; first compound 1 µM)?
Answer: The relative viability was 0.553.

Question: And the relative viability ([6]; first compound 0.01 µM)?
Answer: Its relative viability is 0.474.

Question: What about the relative viability ([6]; first compound 0.03162 µM) of the same compound?
Answer: The relative viability was 0.478.

Question: And the relative viability ([6]; first compound 0.1 µM)?
Answer: Its relative viability is 0.492.

Question: And the relative viability ([6]; first compound 0.3162 µM)?
Answer: The relative viability was 0.489.

Question: What about the relative viability ([6]; first compound 1 µM) of the same compound?
Answer: The relative viability was 0.423.

Question: And the relative viability ([7]; first compound 0.01 µM)?
Answer: The relative viability was 0.713.

Question: What about the relative viability ([7]; first compound 0.03162 µM) of the same compound?
Answer: The relative viability was 0.72.

Question: What about the relative viability ([7]; first compound 0.1 µM) of the same compound?
Answer: Its relative viability is 0.636.

Question: What about the relative viability ([7]; first compound 0.3162 µM) of the same compound?
Answer: Its relative viability is 0.668.

Question: And the relative viability ([7]; first compound 1 µM)?
Answer: Its relative viability is 0.674.

Question: Which relative viability ([1]; first compound 0.03162 µM) does the source give for `CCN(CC)CCCCNc1ncc2cc(-c3cc(OC)cc(OC)c3)c(NC(=O)NC(C)(C)C)nc2n1` + Nc1nc2[nH]cc(CCc3ccc(C(=O)N[C@@H](CCC(=O)O)C(=O)O)cc3)c2c(=O)[nH]1 [Pemetrexed] (partner 0.2 µM) here?
Answer: Its relative viability is 0.354.

Question: And the relative viability ([1]; first compound 0.1 µM)?
Answer: Its relative viability is 0.362.

Question: And the relative viability ([1]; first compound 0.3162 µM)?
Answer: Its relative viability is 0.475.

Question: What about the relative viability ([1]; first compound 1 µM) of the same compound?
Answer: The relative viability was 0.379.

Question: And the relative viability ([2]; first compound 0.01 µM)?
Answer: The relative viability was 0.682.

Question: And the relative viability ([2]; first compound 0.03162 µM)?
Answer: Its relative viability is 0.705.

Question: What about the relative viability ([2]; first compound 0.1 µM) of the same compound?
Answer: The relative viability was 0.634.

Question: What about the relative viability ([2]; first compound 0.3162 µM) of the same compound?
Answer: The relative viability was 0.625.

Question: What about the relative viability ([2]; first compound 1 µM) of the same compound?
Answer: Its relative viability is 0.721.

Question: And the relative viability ([3]; first compound 0.01 µM)?
Answer: Its relative viability is 0.7.

Question: And the relative viability ([3]; first compound 0.03162 µM)?
Answer: The relative viability was 0.815.

Question: And the relative viability ([3]; first compound 0.1 µM)?
Answer: The relative viability was 0.722.

Question: What about the relative viability ([3]; first compound 0.3162 µM) of the same compound?
Answer: The relative viability was 0.491.

Question: What about the relative viability ([3]; first compound 1 µM) of the same compound?
Answer: The relative viability was 0.487.

Question: What about the relative viability ([4]; first compound 0.01 µM) of the same compound?
Answer: The relative viability was 0.882.

Question: What about the relative viability ([4]; first compound 0.03162 µM) of the same compound?
Answer: Its relative viability is 0.898.

Question: And the relative viability ([4]; first compound 0.1 µM)?
Answer: Its relative viability is 0.894.

Question: And the relative viability ([4]; first compound 0.3162 µM)?
Answer: Its relative viability is 1.02.

Question: And the relative viability ([4]; first compound 1 µM)?
Answer: The relative viability was 0.86.

Question: And the relative viability ([5]; first compound 0.01 µM)?
Answer: Its relative viability is 0.57.

Question: And the relative viability ([5]; first compound 0.03162 µM)?
Answer: Its relative viability is 0.583.

Question: And the relative viability ([5]; first compound 0.1 µM)?
Answer: Its relative viability is 0.652.

Question: What about the relative viability ([5]; first compound 0.3162 µM) of the same compound?
Answer: Its relative viability is 0.689.

Question: What about the relative viability ([5]; first compound 1 µM) of the same compound?
Answer: Its relative viability is 0.707.

Question: And the relative viability ([6]; first compound 0.01 µM)?
Answer: Its relative viability is 0.497.

Question: What about the relative viability ([6]; first compound 0.03162 µM) of the same compound?
Answer: The relative viability was 0.487.

Question: What about the relative viability ([6]; first compound 0.1 µM) of the same compound?
Answer: Its relative viability is 0.499.

Question: What about the relative viability ([6]; first compound 0.3162 µM) of the same compound?
Answer: The relative viability was 0.428.

Question: And the relative viability ([6]; first compound 1 µM)?
Answer: The relative viability was 0.514.

Question: And the relative viability ([7]; first compound 0.01 µM)?
Answer: The relative viability was 0.646.

Question: And the relative viability ([7]; first compound 0.03162 µM)?
Answer: Its relative viability is 0.764.

Question: And the relative viability ([7]; first compound 0.1 µM)?
Answer: The relative viability was 0.644.

Question: What about the relative viability ([7]; first compound 0.3162 µM) of the same compound?
Answer: Its relative viability is 0.661.

Question: And the relative viability ([7]; first compound 1 µM)?
Answer: The relative viability was 0.749.

Question: Which relative viability ([1]; first compound 0.08 µM) does the source give for `O=c1cc(-c2cccc3c2Sc2ccccc2S3)oc(N2CCOCC2)c1` + Nc1nc2[nH]cc(CCc3ccc(C(=O)N[C@@H](CCC(=O)O)C(=O)O)cc3)c2c(=O)[nH]1 [Pemetrexed] (partner 0.2 µM) here?
Answer: Its relative viability is 0.428.

Question: What about the relative viability ([1]; first compound 0.253 µM) of the same compound?
Answer: The relative viability was 0.376.

Question: And the relative viability ([1]; first compound 0.8 µM)?
Answer: The relative viability was 0.381.

Question: What about the relative viability ([1]; first compound 2.53 µM) of the same compound?
Answer: The relative viability was 0.482.

Question: And the relative viability ([1]; first compound 8 µM)?
Answer: The relative viability was 0.436.

Question: What about the relative viability ([2]; first compound 0.08 µM) of the same compound?
Answer: Its relative viability is 0.63.

Question: And the relative viability ([2]; first compound 0.253 µM)?
Answer: The relative viability was 0.641.

Question: And the relative viability ([2]; first compound 0.8 µM)?
Answer: The relative viability was 0.607.

Question: And the relative viability ([2]; first compound 2.53 µM)?
Answer: Its relative viability is 0.67.

Question: What about the relative viability ([2]; first compound 8 µM) of the same compound?
Answer: The relative viability was 0.676.

Question: And the relative viability ([3]; first compound 0.253 µM)?
Answer: The relative viability was 0.701.

Question: What about the relative viability ([3]; first compound 0.8 µM) of the same compound?
Answer: Its relative viability is 0.624.

Question: And the relative viability ([3]; first compound 8 µM)?
Answer: Its relative viability is 0.749.

Question: What about the relative viability ([4]; first compound 0.08 µM) of the same compound?
Answer: Its relative viability is 0.828.

Question: And the relative viability ([4]; first compound 0.253 µM)?
Answer: The relative viability was 0.962.

Question: What about the relative viability ([4]; first compound 0.8 µM) of the same compound?
Answer: Its relative viability is 0.934.

Question: And the relative viability ([4]; first compound 2.53 µM)?
Answer: Its relative viability is 0.757.

Question: What about the relative viability ([4]; first compound 8 µM) of the same compound?
Answer: Its relative viability is 0.773.

Question: What about the relative viability ([5]; first compound 0.08 µM) of the same compound?
Answer: The relative viability was 0.588.

Question: And the relative viability ([5]; first compound 0.253 µM)?
Answer: Its relative viability is 0.702.

Question: What about the relative viability ([5]; first compound 0.8 µM) of the same compound?
Answer: The relative viability was 0.567.

Question: And the relative viability ([5]; first compound 2.53 µM)?
Answer: Its relative viability is 0.497.

Question: And the relative viability ([5]; first compound 8 µM)?
Answer: The relative viability was 0.613.

Question: What about the relative viability ([6]; first compound 0.08 µM) of the same compound?
Answer: Its relative viability is 0.443.

Question: What about the relative viability ([6]; first compound 0.253 µM) of the same compound?
Answer: The relative viability was 0.469.

Question: What about the relative viability ([6]; first compound 0.8 µM) of the same compound?
Answer: Its relative viability is 0.504.

Question: And the relative viability ([6]; first compound 2.53 µM)?
Answer: The relative viability was 0.474.

Question: And the relative viability ([6]; first compound 8 µM)?
Answer: The relative viability was 0.469.

Question: And the relative viability ([7]; first compound 0.08 µM)?
Answer: Its relative viability is 0.682.

Question: What about the relative viability ([7]; first compound 0.253 µM) of the same compound?
Answer: Its relative viability is 0.785.

Question: And the relative viability ([7]; first compound 0.8 µM)?
Answer: The relative viability was 0.71.

Question: And the relative viability ([7]; first compound 2.53 µM)?
Answer: The relative viability was 0.695.

Question: And the relative viability ([7]; first compound 8 µM)?
Answer: The relative viability was 0.645.
